In PMC4440816, “Positron Emission Tomography studies with [^11C]PBR28 in the Healthy Rodent Brain: Validating SUV as an Outcome Measure of Neuroinflammation” (PLoS ONE, 2015):
Values joined by “and” are separate entries in the source; they are usually repeats but may differ in a detail not shown here. Equal entries are not always repeated.

Legend:
TSPO = conditions: cited from earlier work
[1] = Radiometabolite analysis of plasma by radio-HPLC; type: in vivo, Wistar rats
Method: (§1) Arterial blood sampling was performed during the PET scan in the first group of four rats. In addition to the insertion of the cannula in the tail vein, another cannula was inserted into the femoral artery. For the rats, sixteen arterial blood samples of 0.1 ml were taken for measurement of radioactivity in plasma and blood using a gamma counter. Four samples of 0.5 ml blood were taken for radiometabolite analysis at 4, 20, 40 and 60 minutes after injection.
To determine the percentages of radioactivity in plasma that corresponded to unchanged [^11C]PBR28 and its radioactive metabolites, reversed-phase HPLC was used. Plasma obtained after centrifugation of 0.5 ml blood at 2,000 g for 2–4 min was mixed with acetonitrile (0.35 ml) and centrifuged for 4 min. The acetonitrile extraction ratio was 93.5% ± 1.8% at 4 min, 87.8% ± 0.5% at 20 min, 85.2% ± 1.1% at 40 min and 78.9% ± 2.4% at 60 min. The supernatant was mixed with 2 ml of water and analysed using radio-HPLC. The radio-HPLC system used consisted of an interface module (D-7000; Hitachi: Tokyo, Japan), a L-7100 pump (Hitachi), an injector (model 7125, with a 5.0-mL loop; Rheodyne: Cotati, USA) equipped with a μ-Bondapak C18 column (300 x 7.8 mm, […]; Waters: New England, USA), and an ultraviolet absorption detector (L-7400, 254 nm; Hitachi) in series with a 150TR; Packard (housed in a shield of 50 mm thick lead) equipped with a 550 μL flow cell. Acetonitrile (A) and ammonium formate (100 mM) (B) were used as the mobile phase at 6.0 mL/min, according to the following gradient: 0–4 min (A/B), 40:60 → 80:20 v/v; 4.1–6 min(A/B), 80:20 v/v; 8 min (A/B), 40:60 v/v. Peaks for radioactive compounds eluting from the column were integrated and their areas were expressed as a percentage of the sum of the areas of all detected radioactive compounds (decay-corrected to the time of injection on the HPLC).

[2] = biological target: T1, 18 kD Translocator protein (TSPO) (Mus musculus, UniProt P50637); assay: Small animal PET brain uptake (SUV) and test-retest, mice; type: in vivo, C57BL/6J mice; conditions: for ICC of SUV / TRV of SUV: Mice, SUV 57–63 min, 7-day interval
T1 construct: from tissue; host or cells: brain of living healthy male C57BL/6J mice (in vivo PET)
Method: (§2) The study was divided in two parts. In the first part arterial sampling was performed in four rats to allow for quantification of [^11C]PBR28 binding and comparison with the SUV. In the second part four rats and four mice were used to determine the test-retest variability of the SUV, with a 7-day interval between the scans.
(§3) The animals were anesthetized with isoflurane (induction 4–5% mixed with oxygen and maintenance 1.5–2% mixed with air/oxygen (50/50)) at a flow rate of 1 L/min and a cannula was inserted into the tail vein for the injection of [^11C]PBR28. After the cannulation, the rats were positioned into the nanoScan PET/MRI or nanoScan PET/CT (Mediso Ltd., Budapest, Hungary) in a transaxial position with their heads in the centre of the field of view. A bolus injection of [^11C]PBR28 was given via the canula in the tail vein at start of the PET measurement. The injection was followed by a saline flush. An emission scan of 63 minutes was acquired for all animals. The average injected radioactivity was 23 ± 5 MBq for the rats and 9.9 ± 1.6 MBq for the mice. The injected mass was 0.05 ± 0.03 μg (n = 8) in rats and 0.011 ± 0.011 μg (n = 8) in mice.
(§4) The PET data was acquired in list mode and was reconstructed into 25 timeframes (4x10 s, 4x20 s, 4x60 s, 7x180 s, 6x360 s) with MLEM reconstruction (20 iterations). Image data were not corrected for attenuation or scatter. For each animal a T1-weighted MRI scan (Isotropic FSE sequence, TR/TE: 2000/84.1) was made for anatomical reference.
(§5) The reconstructed dynamic PET measurements were manually aligned with the corresponding MRI scans. The MRI and PET scans were then normalized to the rat or mice brain MRI template available in PMOD (PMOD 3.2 Zurich, Switzerland). Eight regions of interest were defined using the available template in PMOD, i.e. the striatum, hippocampus, hypothalamus, midbrain, thalamus, cerebral cortex, brainstem and cerebellum. Time-activity curves were generated for each region of interest. For all animals the regional brain uptake values were expressed as SUV and were calculated for 57–63 minute after injection, i.e. the last time-frame. The time used for calculating the SUV was based on the tissue-to-plasma ratio obtained from the first part of the study. From 15–50 minutes the tissue-to-plasma ratio is declining, and the estimated equilibrium state is reached at 50–60 minutes after injection. However, it can be beneficial for future studies to use a shorter scan time, i.e. to allow for scanning of more animals per batch of [^11C]PBR28 and to improve counting statistics. The SUV was therefore also calculated for the time-frame of 39–45 minute after injection, In both cases the SUV was calculated according to Eq 1, and it was assumed that 1 cm^3 of brain tissue equals 1 g.
(§6) SUV=tissue activity concentration(Bq/cm3)/injected dose(Bq)/body weight(g) (1)
(§7) For the test-retest study the test-retest variability was calculated using Eq 2.
(§8) TRV=|test value−retest value|/(test value+retest value)/2*100 (2)
(§9) Additionally the […] correlation coefficient (ICC) was calculated as an index of the reliability of the test-retest measurement using Eq 3, where MS = mean sum of squares, BS = between-subjects, WS = within-subjects, and df = degrees of freedom. It combines the information of the difference between and within the test and retest scan. The ICC values were interpreted as follows: 0–0.2 indicated slight agreement, 0.3–0.4 indicated fair agreement, 0.5–0.6 indicated moderate agreement, 0.7–0.8 indicated substantial agreement, and >0.8 indicated almost perfect agreement between the test and retest measures.
(§10) ICC=MSBS−MSWS/MSBS+(dfWS*MSWS) (3)

[3] = biological target: T2, 18 kD Translocator protein (TSPO) (Rattus norvegicus, UniProt P16257); assay: Dynamic PET with arterial sampling; VT by 2-TCM and Logan graphical analysis, compared with SUV; type: in vivo, Wistar rats; conditions: for VT 2-TCM / VT Logan: n = 3; for VT Logan: t* = 21 min
T2 construct: from tissue; host or cells: brain of living healthy male Wistar rats (in vivo PET)
Method: as §2, §3, §4, §1, §5, §6
For the first groups, the arterial samples and percentage of metabolites were used to determine the metabolite corrected plasma-input function. Two-tissue compartment modelling (2-TCM) and Logan graphical analysis were used to calculate the volume of distribution (VT), using the metabolite corrected plasma curve as input. For the Logan analysis data was fitted from 21 minutes after injection (t* = 21 min).

[4] = Arterial blood and plasma radioactivity (gamma counter); type: in vivo, Wistar rats; conditions: rats; for plasma/blood ratio of radioactivity: average
Method: as §1

[5] = biological target: T2, 18 kD Translocator protein (TSPO); assay: Small animal PET brain uptake (SUV) and test-retest, rats; type: in vivo, Wistar rats; conditions: for ICC of SUV / TRV of SUV: Rats, SUV 57–63 min, 7-day interval
Method: as §2, §3, §4, §5, §6, §7, §8, §9, §10

[6] = rats, 4 minutes after injection
[7] = rats, eight brain regions, SUV 57–63 min

Question: For `CCC(C)N([11CH3])C(=O)c1cc2ccccc2c(-c2ccccc2Cl)n1` (centres unmarked) [[^11C]PK11195], which “non-specific binding” value (TSPO) is on record?
Answer: high level of non-specific binding

Question: What does the source list for `CC(=O)N(Cc1ccccc1O[11CH3])c1ccc(Oc2ccccc2)nc1` [[^11C]PBR28, N-acetyl-N-(2-[^11C]methoxybenzyl)-2-phenoxy-5-pyridinamine]?
Answer: metabolism in rats ([1]; plasma): rapidly metabolized; fraction metabolized [1, 6]: about 60%; parent compound left in plasma [1, 6]: 40.7 ± 9.0%; parent compound left in plasma ([1]; rats, 20 minutes after injection): 8.2 ± 2.6%; parent compound left in plasma ([1]; rats, 40 minutes after injection, n = 1): 3.7%; parent compound left in plasma ([1]; rats, 60 minutes after injection): 2.9 ± 1.5%; ICC of SUV ([2]; Brainstem): 0.31; TRV of SUV ([2]; Brainstem): 13.2; ICC of SUV ([2]; Cerebellum): 0.29; TRV of SUV ([2]; Cerebellum): 13.7; TRV of SUV ([2]; Cerebral cortex): 13.4; ICC of SUV ([2]; Hippocampus): 0.32; TRV of SUV ([2]; Hippocampus): 6.9 ± 4.7 and 6.9; ICC of SUV ([2]; Hypothalamus): 0.01; TRV of SUV ([2]; Hypothalamus): 23.0; ICC of SUV ([2]; Midbrain): 0.02; TRV of SUV ([2]; Midbrain): 15.1; TRV of SUV ([2]; Striatum): 23.6 ± 15.6 and 23.6; ICC of SUV ([2]; Thalamus): 0.71; TRV of SUV ([2]; Thalamus): 7.6; time of maximum total brain uptake (SUV) after injection ([2]; mice, i.v. bolus): around 1 min; affinity for the TSPO (TSPO): high affinity; specific binding compared with [^11C]PK11195 (TSPO): higher specific binding; VT 2-TCM ([3]; Brainstem, rats): 56.7; VT Logan ([3]; Brainstem, rats): 49.7; VT 2-TCM ([3]; Cerebellum, rats): 63.6; VT Logan ([3]; Cerebellum, rats): 54.0; VT 2-TCM ([3]; Cerebral cortex, rats): 45.3; VT Logan ([3]; Cerebral cortex, rats): 41.5; VT 2-TCM ([3]; Hippocampus, rats): 41.1; VT Logan ([3]; Hippocampus, rats): 38.7; VT 2-TCM ([3]; Hypothalamus, rats): 58.3; VT Logan ([3]; Hypothalamus, rats): 51.3; VT 2-TCM ([3]; Midbrain, rats): 40.9; VT Logan ([3]; Midbrain, rats): 36.2; VT 2-TCM ([3]; Striatum, rats): 37.4; VT Logan ([3]; Striatum, rats): 34.5; VT 2-TCM ([3]; Thalamus, rats): 35.8; VT Logan ([3]; Thalamus, rats): 34.2; SUV of sampled rats higher than SUV of non-sampled rats ([3]; data not shown): about 30%; total (whole) brain VT, Logan analysis ([3]; rats, average): 42.9 ± 1.7 and 43.1; total brain VT, 2-TCM ([3]; rats, average): 47.3; correlation (r^2) between average VT (2-TCM) and average SUV [3, 7]: 0.92; correlation (r^2) between average VT (Logan) and average SUV [3, 7]: 0.94; plasma/blood ratio of radioactivity ([4]; 20 seconds after injection): 0.2; plasma/blood ratio of radioactivity ([4]; 60 minutes after injection): 1.0; time of peak uptake in blood and plasma after injection ([4]; arterial samples): around 20 seconds; ICC of SUV ([5]; Brainstem): 0.58; TRV of SUV ([5]; Brainstem): 17.7; ICC of SUV ([5]; Cerebellum): 0.72; TRV of SUV ([5]; Cerebellum): 11.5; ICC of SUV ([5]; Cerebral cortex): 0.81; TRV of SUV ([5]; Cerebral cortex): 16.7; ICC of SUV ([5]; Hippocampus): 0.88; TRV of SUV ([5]; Hippocampus): 7.7 ± 3.5 and 7.7; ICC of SUV ([5]; Hypothalamus): 0.59; TRV of SUV ([5]; Hypothalamus): 20.4 ± 15.4 and 20.4; ICC of SUV ([5]; Midbrain): 0.86; TRV of SUV ([5]; Midbrain): 12.3; ICC of SUV ([5]; Striatum): 0.69; TRV of SUV ([5]; Striatum): 13.6; ICC of SUV ([5]; Thalamus): 0.71; TRV of SUV ([5]; Thalamus): 13.7; time of maximum total brain uptake (SUV) after injection ([5]; non-sampled rats, i.v. bolus): around 1 min
